Series [1] deals with rats. To be noted: adult cycling rats, 10 μg/kg (Li et al. 1995a); cited from earlier work.
The conditions of series [2]: human data; cited from earlier work.
The conditions of series [3]: WHO; cited from earlier work.
For series [4], the system named is rats. The conditions noted are these: cited from earlier work.
The subject of a further series is guinea pigs. To be noted: p.o. (Schwetz et al. 1973); cited from earlier work.
In the next series the test system is hamsters. The conditions noted are these: hamsters (Eisler 1986); cited from earlier work.
A further series has as its system humans. To be noted: cited from earlier work.
Series [5] concerns rats. To be noted: calculated from the literature, cited from earlier work.
Series [6] in a line: Half-lives after intravenous dosage in guinea pigs. To be noted: guinea pig, in vivo, 10 mg/kg, two guinea pigs, i.v. 10 mg/kg. The text has this: (§1) Studies on a limited number of animal have been conducted to determine the approximate half-life of TCPT.
Series [7] relates to Dunkin-Hartley guinea pigs. The series is described as follows: Effects on ovulation in guinea pigs. It counts as in vivo, guinea pig. The text has this:
In the present invention, guinea pigs were chosen for this study for two reasons. First, they represent the species that is the most sensitive to TCDD. […] Dosing with gelatin capsules can be performed in this species without anesthesia, which is not possible in rats. This is an important factor, since anesthetics generally influence ovulation.
The guinea pigs were followed for at least two regular consecutive cycles (about 16 days each) before commencing with dosing and also after the administration of TCPT was terminated. Their cycles were tracked by observation of vaginal opening and vaginal smears. The day of ovulation, day 1, was defined as a leucocytic smear following a cornified smear. The animals were dosed for 9 consecutive days starting on day 9 of a highly regular normal cycle. This way, the dosing period overlapped with the relevant time-span for ovulation and regulation of the cycle length (Terranova & Greenwald 1981). The animals received dose rates of 2.5, 5, 10 and 20 mg/kg TCPT per day. One animal was pair-fed to an animal dosed with 20 mg/kg/day TCPT.

Series [8] in a line: Acute i.v. toxicity of TCPT in rats. The conditions noted are these: female, Sprague-Dawley, rat, in vivo, iv; rats, i.v.; read-out: dose for the acute lethal toxicity (referred to as i.v. LD50). The series is classed as in vivo, rat. As for the experimental part: (§2) Animals dosed with 10 mg/kg became unconscious for 30 min, whereas in the 5 mg/kg dose group, the rats lost consciousness for 3 min only, likely representing the effects of acetone in this case.
(§3) Due to the unexpectedly rapid onset of death, no more detailed observations, e.g. on the heart rate, could be made.

In another series the test system is Sprague-Dawley rats. The series is described as follows: Acute i.v. toxicity of TCPT in rats. It counts as in vivo, rat. As for the experimental part: as §2, §3
For the next series, the system named is guinea pig. The series is described as follows: Single intravenous administration of TCPT in guinea pigs. To be noted: single i.v. 10 mg/kg in acetone (0.5 ml/kg). It counts as in vivo. As to the method:
During ovulation studies (see Example 4 below), an adult female was lost after having been dosed with 10 mg/kg/day for 9 consecutive days; the animal died on day 13.
In this example, the toxicity of TCPT was compared between each species. […] On the other hand, a female rat receiving i.v. 10 mg/kg was sedated within 30 minutes.

In series [9] the test system is Dunkin-Hartley guinea pigs. The series is described as follows: Altering the regulation level for bodyweight in guinea pigs. It counts as in vivo, guinea pig. As for the experimental part:
In the present invention, guinea pigs were dosed for 9 consecutive days with 2.5, 5, 10 and 20 mg/kg/day TCPT, respectively. The observations presented here were made during another study which was not designed for comparative body weight analysis. […] In contrast to studies on TCDD, weight gain resumed 1-2 days after cessation, probably due to TCPT's shorter half-life and therefore more rapid elimination.

In series [10] the test system is Dunkin-Hartley guinea pigs. The series is described as follows: Acute toxicity, daily p.o. doses of TCPT in guinea pigs.
Procedure: (§4) In this example, dose-range finding studies were performed with a small number of animals to accommodate the limited availability of TCPT.
(§5) Six adult male Dunkin-Hartley guinea pigs were given daily p.o. doses of TCPT. Due to its insolubility, TCPT was administered as a solid in size 9 gelatin capsules and dosing devices purchased from Torpack, Inc. (Fairfield, N.J.).
(§6) The experimental design of daily dosing accounted for the short half-life known from clinically used phenothiazines and the results of prior unpublished studies with 1,2,3,7,8,9-hexachlorophenothiazine.
(§7) This example first looked at daily p.o. administration to guinea pigs. Eleven guinea pigs received multiple doses of TCPT, with dosages ranging from 2.5 to 100 mg/kg/day.
Assay in series [11]: as above
Procedure: as §4, §5, §6, §7
The conditions noted are these: female, Dunkin-Hartley, guinea pig, in vivo, po.

A short description of series [12]: Half-lives after intravenous dosage in rats. To be noted: rat, in vivo.
Excerpt: as §1

In series [13] the test system is rats. The series is described as follows: Observed interaction with anesthetics (pentobarbital).
The next series relates to CYP 1A1. The series is described as follows: In vitro ethoxyresorufin-O-deethylase (EROD) study in rat hepatoma cells. It counts as cell-based. As for the experimental part:
The induction of CYP 1A1 has been quantitatively measured in an cell-line study. The choice of EROD as an in vitro study was made based on its established procedure and speed. […] Its metabolic context is both, a strength and a weakness of the EROD assay. The greatest advantage of cell-based assays is the detection of the actual gene expression as compared to the study of interaction with DREs (Seidel et al. 2000).
The EROD-specific activity of TCPT declined over time, with its maximum at 24 h out of measurements after 24, 48 and 72 h. This indicates a comparatively rapid metabilization of TCPT by rat hepatoma cells.

A short description of series [14]: Solubility and stability observations. It counts as physicochemical.
[15] abbreviates: 20 mg/kg/day, 9 consecutive days.
The mark [16] stands for this setting: peroral solid TCPT 30 min prior to pentobarbital (55 mg/kg).

Usually LD50 stands for the dose expected to kill half of the subjects tested. As usually defined, the half-life is the time in which the quantity being followed falls by half.

SMILES strings stand for the structures. Entries after “also recorded” stand apart in the source; their conditions may differ. Read-outs that look alike come from different tables or passages of the source.

Consider `Clc1cc2c(cc1Cl)Oc1cc(Cl)c(Cl)cc1O2` [TCDD, 2,3,7,8-Tetrachlorodibenzo-p-dioxin], for which the “effect on cycle and ovulation” value in the series on rats [1] is “prolonged diestrus stage”. Besides, the absorption in series [2] is over 86%. The TEF-value in [3] is 1. For the same compound, the LD50 in the series with rats [4] (Han Wistar rats (Pohjanvirta et al.)) was over 3 mg/kg; with rats [4] (Long-Evans rats (Pohjanvirta et al.)) it was 0.01 mg/kg; in the series on rats [4] (female rats (Schwetz et al. 1973)) it was 0.045 mg/kg; with rats [4] (male rats (Schwetz et al. 1973)), 0.022 mg/kg; with guinea pigs, 0.0021 mg/kg; with hamsters, 1157−5051 μg/kg. Also, the “inter-strain difference in LD50” value in the series with rats [4] (between Long-Evans and Han Wistar rats) was about 300 fold. For the same compound, in the series with rats [4] (rats, i.v. (Schwetz et al. 1973)), the “i.v. LD50” value is 0.025 mg/kg. Besides, the “concentration below which most individuals do not show signs” value in the series on humans (humans (Williams & Wilkins 1992)) is 11,000 ppt. Further, in the series with humans (humans (Young 1984)), the “dose corresponding to 11,000 ppt” value is on record as “about 100 μg/kg”. Besides, in the series with humans (susceptible individuals, based on serum lipid content), the “concentration at which chloracne symptoms may occur” value is listed as 800 ppt. The “body burden below which weight gain resumed” value in the series with rats [5] (3 weeks after dosing) is on record as “Below 5 μg/kg”. The “body burden at which feed intake started rising again” value in the series with rats [5] (after non-lethal dose of 15 μg/kg, after 11 days) was 6.6 to 8 µg/kg.

As to `Clc1cc2c(cc1Cl)Oc1c(cc(Cl)c(Cl)c1Cl)O2` [PeCDD, 1,2,3,7,8-pentachlorodibenzo-p-dioxin], in [3], the TEF-value is 1.

As for `Clc1cc2c(cc1Cl)Sc1cc(Cl)c(Cl)cc1N2` [TCPT, 2,3,7,8-tetrachlorophenothiazine], the half-life was 0.42 h in series [6] (read-out: half-life, distribution phase (converted)); 2.71 h in series [6] (read-out: half-life, elimination phase (converted)); 0.82 h in series [12] (5 mg/kg, two rats, i.v. 5 mg/kg, read-out: half-life, distribution phase (converted)); 5.42 h in [12] (5 mg/kg, two rats, i.v. 5 mg/kg, read-out: half-life, elimination phase (converted)); 0.47 h in series [12] (10 mg/kg, one rat, i.v. 10 mg/kg, read-out: half-life, distribution phase (converted)); 2.25 h in [12] (10 mg/kg, one rat, i.v. 10 mg/kg, read-out: half-life, elimination phase (converted)). Further, the effect on cycle/ovulation result in series [7] (10 mg/kg/day, 9 consecutive days) is reported as “shortened period of vaginal opening”; in series [7] (two lowest dose groups (2.5, 5 mg/kg per day), 9 consecutive days from day 9 of cycle), “no effect”. Also, the effect on ovulation entry in series [7] (setting [15]) is reported as “inhibited ovulation”. Besides, the vaginal opening entry in [7] (setting [15]) was “irregular vaginal opening”. In addition, the “direct or endocrine effect on the ovaries” value in series [7] (guinea pigs, conclusion of the experiment) is given as “no direct or endocrine effect on the ovaries”. The LD50 in series [8] lay within 10 to 30 mg/kg; in series [11] it was 25 to 50 mg/kg. Also, the sedation in the series on Sprague-Dawley rats (female rat, i.v. 10 mg/kg) is at most 30 min. Besides, the “duration of lost consciousness” value with Sprague-Dawley rats (female rats, i.v. 5 mg/kg in acetone (1 ml/kg), likely effect of acetone) came to 3 min. In the series with Sprague-Dawley rats (female rats, i.v. 10 mg/kg in acetone (1 ml/kg)), the duration of unconsciousness was determined as 30 min. The lethality result in the series on Sprague-Dawley rats (female rats, i.v. 30 mg/kg in acetone (1 ml/kg), 30 mg/kg) is “died within five seconds; also recorded: dropped dead within five seconds; also recorded: lethal dose”. In addition, in the series with Sprague-Dawley rats (rats), the “i.v. LD50 of TCPT relative to reported i.v. LD50 of TCDD” value is listed as “roughly 1,000 times”. In addition, in the series on guinea pig, the observable effects entry is “no observable effect”. Also, the set-point of bodyweight result in series [9] (all survivors) is reported as “reduced set-point of bodyweight”. Also, the “bodyweight during the dosing period” value in series [9] (guinea pigs, 2.5, 5, 10 and 20 mg/kg/day for 9 consecutive days) is listed as “decrease in bodyweight”. Moreover, the “time until weight gain resumed after cessation” value in series [9] (guinea pigs, after 9 days of dosing) was in the range of 1 to 2 days. Besides, the “reduction of set-point for bodyweight” value in series [9] (treated animal (20 mg/kg/day, 9 days), FIG. 2) was 66 grams. The day of death in [10] (adult female guinea pig, 10 mg/kg/day p.o. for 9 consecutive days) amounted to 13 days. Besides, the Result result in series [10] (adult male guinea pig, animal 1, p.o. 25 mg/kg/d for 18 days) is reported as “survived”; in [10] (adult male guinea pig, animal 2, p.o. l00 mg/kg/d for 8 days), “died”; in series [10] (adult male guinea pig, animal 3, p.o. 50, 10, 25, 50 mg/kg/d (dose-range finding) for 17 days) it was “died”; in series [10] (adult male guinea pigs, animals 4-6, p.o. 27.5, 44, 50, 57, 67, 75 mg/kg/d for 13 days) it was “survived”. Moreover, the body weight entry in series [10] (eleven guinea pigs, multiple p.o. doses 2.5 to 100 mg/kg/day) is “body weight loss”. Moreover, in series [10] (guinea pigs), the “p.o. LD50 of TCPT relative to reported p.o. LD50 of TCDD” value was “roughly 10,000 times”. The autopsy finding result in series [10] (guinea pigs that died) is “loss of all adipose tissue”. Besides, in series [10] (guinea pigs, p.o. 25-50 mg/kg/day), the “days of dosing until death” value lay in the range of 8 to 11 days. For the same compound, the “dose for the acute lethal toxicity” value in [10] (guinea pigs, p.o., daily dosing) was 25 to 50 mg/kg/day. Further, the “difference in acute toxicity to TCDD” value in series [10] (oral administration) is 10^−4 fold. For the same compound, the “peroral potency compared with TCDD (wasting syndrome)” value in [10] (p.o. dosing) was “four orders of magnitude lower”. In [10] (survivors of daily p.o. dosing), the tolerance result is listed as “development of tolerance”. Further, in the series with rats [13] (i.v. 3 mg/kg, pentobarbital anesthesia), the “mortality in anesthetized animals” value is recorded as “one animal dying out of three”. In the series on rats [13] (i.v. 5 mg/kg in acetone (1 ml/kg), pentobarbital 55 mg/kg), the “effect in anesthetized animals” value is “immediate respiratory arrest”. Further, the fatalities entry in the series with rats [13] (setting [16]) was “no fatalities”. Moreover, the “shortening of the onset of anesthesia” value in the series with rats [13] (setting [16]) was “about 50%”. In addition, in the series with rats [13] (rats, p.o. administration of various doses during pentobarbital-induced anesthesia), the breathing result is “breathed very shallow and in long intervals”. Further, the “potency compared with TCDD (acute toxicity in animals and in vitro EROD-specific activity)” value in the series on CYP 1A1 is recorded as “three orders of magnitude less potent”. For the same compound, in the series on CYP 1A1 (measurements after 24, 48 and 72 h, declined over time), the “time of maximum EROD-specific activity” value is given as 24 h. For the same compound, the “efficacy, of the efficacy of TCDD, in vitro EROD-bioassay” value with CYP 1A1 (rat hepatoma cells) was determined as 77%. The stability in acetone entry in series [14] was “decomposes in acetone”; in [14] (listed as KWF3), “degraded when kept in acetone for longer periods of time”. For the same compound, in [14] (any solvent), the solubility result is given as “insolubility; also recorded: low solubility”.

Values taken from US20050288279A1, “Phenothiazine derivatives and their method of use” (priority 2004, published 2005).
